Each molecule was assayed against Uracil-DNA glycosylase (Human herpesvirus 1) (UniProt P10186) (assay: Inhibitory potency against HSV-1 UDG (Herpes Simplex virus type-I Uracil DNA glycosylase)).
Uracil-DNA glycosylase (Human herpesvirus 1), sequence (P10186 whole entry, looked up): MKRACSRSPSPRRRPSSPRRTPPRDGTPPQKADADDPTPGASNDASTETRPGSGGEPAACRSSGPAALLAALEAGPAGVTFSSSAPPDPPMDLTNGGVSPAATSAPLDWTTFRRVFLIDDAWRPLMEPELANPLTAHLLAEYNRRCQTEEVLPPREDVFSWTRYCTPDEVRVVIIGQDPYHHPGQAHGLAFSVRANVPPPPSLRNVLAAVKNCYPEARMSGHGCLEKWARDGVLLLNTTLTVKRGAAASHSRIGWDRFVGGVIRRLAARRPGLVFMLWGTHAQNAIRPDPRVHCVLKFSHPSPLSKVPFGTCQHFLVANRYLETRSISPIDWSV

Row | IC50 | SMILES
1 | 500 µM | CCc1ccc(Nc2cc(=O)[nH]c(=O)[nH]2)cc1 [6-(4-Ethyl-phenylamino)-1H-pyrimidine-2,4-dione]
2 | 20 µM | CCCCCCc1ccc(Nc2cc(=O)[nH]c(=O)n2CCO)cc1 [6-(4-Hexyl-phenylamino)-1-(2-hydroxy-ethyl)-1H-pyrimidine-2,4-dione]
3 | > 100 µM | CCCCCCc1ccc(Nc2cc(=O)[nH]c(=O)n2CCOC)cc1 [6-(4-Hexyl-phenylamino)-1-(2-methoxy-ethyl)-1H-pyrimidine-2,4-dione]
4 | 90 µM | CCCCCCc1ccc(Nc2cc(=O)[nH]c(=O)n2CCCO)cc1 [6-(4-Hexyl-phenylamino)-1-(3-hydroxy-propyl)-1H-pyrimidine-2,4-dione]
5 | > 100 µM | CCCCCCc1ccc(Nc2cc(=O)[nH]c(=O)n2CCCOC)cc1 [6-(4-Hexyl-phenylamino)-1-(3-methoxy-propyl)-1H-pyrimidine-2,4-dione]
6 | 30 µM | CCCCCCc1ccc(Nc2cc(=O)[nH]c(=O)[nH]2)cc1 [6-(4-Hexyl-phenylamino)-1H-pyrimidine-2,4-dione]
7 | 30 µM | CCCCCCOc1ccc(Nc2cc(=O)[nH]c(=O)[nH]2)cc1 [6-(4-Hexyloxy-phenylamino)-1H-pyrimidine-2,4-dione]

These molecules were tested against Uracil-DNA glycosylase (Human herpesvirus 1) (UniProt P10186) (assay: Inhibitory potency against HSV-1 Uracil-DNA glycosylase).

Row | IC50 | SMILES
8 | 10 µM | CCCCCCCCc1ccc(Nc2cc(=O)[nH]c(=O)n2CCO)cc1 [1-(2-Hydroxy-ethyl)-6-(4-octyl-phenylamino)-1H-pyrimidine-2,4-dione]
9 | 15 µM | CCCCCCCCc1ccc(Nc2cc(=O)[nH]c(=O)n2CCOC)cc1 [1-(2-Methoxy-ethyl)-6-(4-octyl-phenylamino)-1H-pyrimidine-2,4-dione]
10 | 35 µM | CCCCCCCCCCc1ccc(Nc2cc(=O)[nH]c(=O)[nH]2)cc1 [6-(4-Decyl-phenylamino)-1H-pyrimidine-2,4-dione]
11 | 150 µM | CCCCCCCCc1ccc(Oc2cc(=O)[nH]c(=O)[nH]2)cc1 [6-(4-Octyl-phenoxy)-1H-pyrimidine-2,4-dione]
12 | 8 µM | CCCCCCCCc1ccc(Nc2cc(=O)[nH]c(=O)[nH]2)cc1 [6-(4-Octyl-phenylamino)-1H-pyrimidine-2,4-dione]
13 | 25 µM | CCCCCCCCOc1ccc(Nc2cc(=O)[nH]c(=O)[nH]2)cc1 [6-(4-Octyloxy-phenylamino)-1H-pyrimidine-2,4-dione]

— BindingDB's records for doi:10.1021/jm980718d (University of Massachusetts Medical Center, 1999)
